According to patent US9422235B2, “Sulfonamide derivatives with therapeutic indications” (Pharmos Corporation, priority 2006, dated 2016):
Read-outs that look alike come from different tables or passages of the source.

What was measured:
[1] = biological target: human CB2 receptor (Homo sapiens (Human), UniProt P34972); assay: [35S]GTPγS-binding assay, functional activity at the human CB2 receptor; type: biochemical; settings: Cell line C2-4
Protocol: Functional activity of compounds of the invention toward the cannabinoid receptors was determined by stimulation of [^35S]-GTPγS binding using membranes from HEK-293 cells expressing the hCB1 receptor and membranes expressing the hCB2 receptor derived from either Sf9 (PerkinElmer) or from HEK-293 cells. Activities were compared to that of the known cannabinoid full agonist CP55940 (Alexis). The purpose of this experiment is to determine the potency of the compounds of the invention as agonists or antagonists toward each of the receptor tested.
[^35]-GTPγS binding reactions were performed at 30° C. in 96-well plates containing 5-10 μg membrane protein suspended in 0.1 ml binding buffer (20 mM HEPES-NaOH, pH 7.4, 5 mM MgCl2, 100 mM NaCt, 0.2% (w/v) bovine serum albumin) supplemented with 50 μM GDP and 0.06 nM-10 μM of the compound being tested. Binding was initiated by the addition of [^35S]GTPγS (0.3 nM final concentration). Incubations were performed for 90 minutes and were terminated by filtration on GF/C filter plates (PerkinElmer). Filters were washed ten times with ice-cold wash buffer (20 mM HEPES-NaOH, pH 7.4, 10 mM sodium pyrophosphate). Non-specific binding was measured in the presence of 15 μM GTPγS.
Assays were performed in duplicates. Data was analyzed by plotting on the X axis the log concentration against percent of specific [^35S]GTPγS binding out of basal [^35S]GTPγS binding on the Y axis, non-linear regression is then performed using GraphPad Prism, version 3.0 (GraphPad, San Diego, Calif.) to calculate the EC50 and Emax of the compound. The EC50 value represents the concentration at which there is 50% [^35S]GTPγS binding and the Emax value the upper plateau of the curve.
CP55940 is a full agonist of the human and rat CB2 receptors. […] Full or partial agonism at the receptor was determined relative to the Emax value of CP55940.

[2] = test system: Male Sprague Dawley rats; assay: Chronic constriction induced (CCI) model of neuropathic pain, mechanical hyperalgesia; type: in vivo, rat; settings: 10 mg/kg, s.i.d, 14 days
Protocol: The analgesic activity of compounds of the invention is assessed in a chronic constriction induced (CCI) model of neuropathic pain. A peripheral neuropathy is induced in the left hind limb of rats following a chronic constriction of the sciatic nerve according to Bennet et al. (Bennet, G. J. & Xie, Y-K., Pain 33: 87-107, 1988). The development of mechanical hyperalgesia is monitored using an established behavioral test analgesy meter or dynamic planter aesthesiometer.
Pre-surgery baseline values are ascertained as the mean of 2 pre-surgery values. Once the baseline values are established, the animals are surgically prepared by constricting the left sciatic nerve with 4-0 chromic catgut loose ligatures. […]
The design is randomized, performed in a masked fashion as to whether drug or vehicle is being given. […] On the testing day, 24 hours after administration period lapsed, the differences between ipsilateral and contralateral hind leg thresholds were measured in grams using the Dynamic planter aesthesiometer or analgesy meter (Ugo basile).
Results are expressed as mean±SEM for each treatment group and the differences among those groups are analyzed by analysis of variance (ANOVA) followed by post-hoc analysis using Tukey's test. […]

[3] = test system: Male Sprague Dawley rats; assay: CFA-induced acute inflammatory pain, mechanical stimulus (Dynamic Plantar Aesthesiometer); type: in vivo, rat; settings: three hours post administration
Protocol: Acute Inflammatory Pain. The purpose of this study is to test the analgesic activity of the compounds in inflammatory pain. Inflammatory pain is nociceptive in nature, wherein the pain sensation is often perceived for longer period than in acute pain. In the present model the duration of the preventive activity of compounds against inflammatory acute pain was assessed for up to about three hours post-drug administration. Inflammatory pain and paw edema were induced by intraplantar injection of 50% Complete Freund's Adjuvant (CFA) suspension in the animal hind paw. […]
Prior to, 24 hours post induction of inflammatory pain and one and three hours after drug administration, the animals reactions to pain stimuli were tested by mechanical stimulus. The mechanical (tactile) analgesia was assessed using a Dynamic Plantar Aesthesiomether (Ugo Basile Model 73400-002). […]
The results are presented as the force needed for hind paw withdrawal before surgery, 24 hours post surgery and 1 and 3 hours post drug administration. Results are expressed as mean±SEM for each treatment group and the differences among those groups are analyzed by analysis of variance (ANOVA). […]
The baseline values for the force to be applied for left hind paw withdrawal following mechanical stimuli is about 30 gram before inflammatory pain induction. […] Results, expressed as Force measured in grams, are depicted in FIG. 3.

[4] = test system: female BALB/c mice; assay: Dextran Sulfate Salt (DSS)-induced acute colitis; type: in vivo, mouse; settings: for % Survival / Clinical score / Percentage change in body weight: i.p.
Description: In order to test the activity of compounds of the invention in an animal model of inflammatory bowel disease, female BALB/c mice 9-12 week old (Harlan, Israel) were used for Dextran Sulfate Salt (DSS)-induced acute colitis studies. Mice (ten per treatment group) were provided with a solution of tap water containing 5% DSS (MW. 36000-50000; MP Biomedicals, LLC) ad libitum over an 8 day period. The DSS solution was replenished every other day and switched to tap water at day 8. Body weight was measured daily. The clinical scores combined both macroscopic (diarrhea, body weight, mortality) as well as microscopic (pathological) scores. Diarrhea score in the studies for each animal represented the daily summary of stool consistency (scored as: 0, normal; 1, soft but still formed; 2, very soft; 3, diarrhea) and the presence of blood in stool (scored: 0, None; 1, visible blood traces in stool; 2, signs of blood; 3, rectal bleeding). At the end of experiment animals were euthanized and their colons are examined for signs of pathological damage. The pathological scores, colon length and weight were determined from the cecum to the anus (scored: 0, normal; 1, slight inflammation; 2, moderate inflammation and/or edema; 3, heavy inflammation and/or ulceration and/or edema).
Two compounds were tested in DSS-induced colitis in mice, compounds 4 and 58. […] Results are expressed as mean ± SEM for each treatment group and the differences among those groups are analyzed by T-test. Two crosshatches indicate a p value below 0.01 and three indicate a p value below 0.001. Asterisks denote statistical significant weight loss relative to animal weight in the beginning of the experiment.
Alternatively, compound 58 (30 mg/kg) was administered orally from the first day of DSS administration (day 1) until the end of the experiment (day 10).

Sequence of human CB2 receptor (P34972 whole entry): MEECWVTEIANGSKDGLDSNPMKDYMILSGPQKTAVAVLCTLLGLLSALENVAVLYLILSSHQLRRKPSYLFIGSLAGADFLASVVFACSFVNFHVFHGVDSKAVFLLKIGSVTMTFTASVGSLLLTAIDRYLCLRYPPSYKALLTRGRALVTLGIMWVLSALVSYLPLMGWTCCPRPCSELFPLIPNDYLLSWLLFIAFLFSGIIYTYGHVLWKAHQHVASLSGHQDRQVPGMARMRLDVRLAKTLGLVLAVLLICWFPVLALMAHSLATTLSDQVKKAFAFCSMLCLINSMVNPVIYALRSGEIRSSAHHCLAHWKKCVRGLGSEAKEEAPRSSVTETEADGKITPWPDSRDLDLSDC

SMILES: COc1cc(Nc2ccc(S(=O)(=O)NCC3CC3)c(C(F)(F)F)c2)cc(OC)c1 [Compound 4, N-Cyclopropylmethyl-4-(3,5-dimethoxy-phenylamino)-2-trifluoromethyl-benzenesulfonamide]
- Emax ([1]; Emax of compound divided by Emax of CP55940, read-out: % Activity (relative to CP55,940)): 51%
- Emax ([1]; upper plateau of [35S]GTPγS binding curve, read-out: Emax (%)): 26%
- reduction of the CCI induced hyperalgesia [2]: significant reduction
- reversal of pain threshold of injured paw ([3]; 10 mg/kg i.p.): 50%
- reversal of pain threshold of injured paw ([3]; 30 mg/kg i.p.): 100%
- % Survival ([4]; 20 mg/kg): 90%
- Clinical score ([4]; 20 mg/kg): 3.4 ± 0.7
- Percentage change in body weight ([4]; 20 mg/kg): −9.6 ± 1.59 %
- % Survival ([4]; 40 mg/kg): 100%
- Clinical score ([4]; 40 mg/kg): 3.1 ± 0.6
- Percentage change in body weight ([4]; 40 mg/kg): −5 ± 2.3 %
- efficacy in DSS-induced colitis (weight loss, clinical signs or gross pathology) ([4]; administered intraperitoneally): modest efficacy
